From US8440654B2, “Thieno- and furo-pyrimidine modulators of the histamine H4 receptor” (Janssen Pharmaceutica NV, priority 2007, dated 2013)
Where a name gives a salt, the structure may show the parent alone.

What follows are compounds tested against T1, human histamine H4 receptor (Homo sapiens, UniProt Q9H3N8) (assay: Binding Assay on Recombinant Human Histamine H4 Receptor). Settings: competition binding with 3H-histamine, membranes of SK-N-MC or COS7 cells transfected with human H4R; average of results obtained.
T1 construct: expressed in transfected cells; host or cells: SK-N-MC cells or COS7 cells, transiently transfected with pH4R; membrane preparation
Description: Biological Methods: Binding Assay on Recombinant Human Histamine H4 Receptor.
SK-N-MC cells or COS7 cells were transiently transfected with pH4R and grown in 150 cm^2 tissue culture dishes. Cells were washed with saline solution, scraped with a cell scraper and collected by centrifugation (1000 rpm, 5 min). Cell membranes were prepared by homogenization of the cell pellet in 20 mM Tris-HCl with a polytron tissue homogenizer for 10 sec at high speed. Homogenate was centrifuged at 1000 rpm for 5 min at 4° C. The supernatant was then collected and centrifuged at 20,000×g for 25 min at 4° C. The final pellet was resuspended in 50 mM Tris-HCl. Cell membranes were incubated with ^3H-histamine (5-70 nM) in the presence or absence of excess histamine (10,000 nM). Incubation occurred at room temperature for 45 min. Membranes were harvested by rapid filtration over Whatman GF/C filters and washed 4 times with ice-cold 50 mM Tris HCl. Filters were then dried, mixed with scintillant and counted for radioactivity. SK-N-MC or COS7 cells expressing human histamine H4 receptor were used to measure the affinity of binding of other compounds and their ability to displace ^3H-ligand binding by incubating the above-described reaction in the presence of various concentrations of inhibitor or compound to be tested. For competition binding studies using ^3H-histamine, K values were calculated, based on an experimentally determined KD value of 5 nM and a ligand concentration of 5 nM, according to Y.-C.

| Ki [nM] | Compound |
| --- | --- |
| 5 | CN[C@H]1CCN(c2nc(N)nc3c4c(sc23)CCCC4)C1 (single isomer, unassigned) [Example 31] |
| 182 | CNC1CCN(c2nc(N)nc3c(C)csc23)C1 (stereo in doubt) [Example 12, 7-Methyl-4-[(3R)-3-(methylamino)pyrrolidin-1-yl]thieno[3,2-d]pyrimidin-2-amine] |
| 221 | CC(C)(C)c1cc2nc(N)nc(N3CCC(N)C3)c2s1 (stereo in doubt) [Example 18, 4-[(3R)-3-Aminopyrrolidin-1-yl]-6-tert-butylthieno[3,2-d]pyrimidin-2-amine trifluoroacetic acid salt] |
| 3 | CNC1CCN(c2nc(N)nc3c4c(oc23)CCCC4)C1 (stereo in doubt) [Example 21, 4-[(3R)-3-(Methyl-amino)pyrrolidin-1-yl]-6,7,8,9-tetrahydro[1]benzo-furo[3,2-d]pyrimidin-2-amine trifluoro acid salt] |
| 66 | CNC1CCN(c2ncnc3c4c(oc23)CCCC4)C1 (stereo in doubt) [Example 28, (3R)-N-Methyl-1-(6,7,8,9-tetrahydro[1]benzofuro[3,2-d]pyrimidin-4-yl)pyrrolidin-3-amine] |
| 503 | CCNC1CCN(c2nc(N)nc3c4c(sc23)CCCC4)C1 (stereo in doubt) [Example 40, 4-[(3R)-3-(Ethyl-amino)pyrrolidin-1-yl]-6,7,8,9-tetrahydro[1]benzo-thieno[3,2-d]pyrimidin-2-amine trifluoroacetic acid salt] |
| 5 | CNC1CCN(c2nc(N)nc3c4c(sc23)CCCCC4)C1 (stereo in doubt) [Example 47, trifluoroacetic acid salt] |
| 10 | Nc1nc(N2CCC(N)C2)c2sc3c(c2n1)CCCC3 (stereo in doubt) [Example 56, 4-[(3R)-3-Aminopyrrolidin-1-yl]-6,7,8,9-tetrahy-dro[1]benzothieno[3,2-d]pyrimidin-2-amine trifluoracetic acid salt] |
| 13 | CN1CCN(c2nc(N)nc3c4c(sc23)CCCC4)CC1 [Example 2, 4-(4-Methyl-piperazin-1-yl)-6,7,8,9-tetrahydro-benzo[4,5]thieno[3,2-d]pyrimidin-2-ylamine] |
| 23 | Nc1nc(N2CCNCC2)c2sc3c(c2n1)CCCC3 [Example 3, 4-piperazin-1-yl-6,7,8,9-tetrahydro-benzo[4,5]thieno[3,2-d]pyrimidin-2-ylamine] |
| 8 | CN1CCN(c2nc(N)nc3c4c(oc23)CCCC4)CC1 [Example 5, 4-(4-Methyl-piperazin-1-yl)-6,7,8,9-tetrahydro-benzo[4,5]furo[3,2-d]pyrimidin-2-ylamine] |
| 5 | Nc1nc(N2CCNCC2)c2oc3c(c2n1)CCCC3 [Example 6, 4-piperazin-1-yl-6,7,8,9-tetrahydro-benzo[4,5]furo[3,2-d]pyrimidin-2-ylamine] |
| 53 | CN1CCN(c2ncnc3c4c(oc23)CCCC4)CC1 [Example 8, 4-(4-Methyl-piperazin-1-yl)-6,7,8,9-tetrahydro-benzo[4,5]furo[3,2-d]pyrimidine] |
| 132 | CN1CCN(c2ncnc3c4c(sc23)CCCC4)CC1 [Example 10, 4-(4-Methyl-piperazin-1-yl)-6,7,8,9-tetrahydro-benzo[4,5]thieno[3,2-d]pyrimidine] |
| 286 | CN1CCN(c2nc(N)nc3cc(C(C)(C)C)sc23)CC1 [Example 15, 6-tert-Butyl-4-(4-methyl-piperazin-1-yl)thieno[3,2-d]pyrimidin-2-amine trifluoroacetic acid salt] |
| 71 | CN[C@H]1CCN(c2nc(N)nc3cc(C(C)(C)C)sc23)C1 [Example 16, trifluoroacetic acid salt] |
| 142 | CC(C)(C)c1cc2nc(N)nc(N3CCNCC3)c2s1 [Example 17, 6-tert-Butyl-4-piperazin-1-ylthieno[3,2-d]pyrimidin-2-amine trifluoroacetic acid salt] |
| 3 | Nc1nc(N2CCCNCC2)c2oc3c(c2n1)CCCC3 [Example 22, 4-(1,4-Diazepan-1-yl)-6,7,8,9-tetrahydro[1]benzo-furo[3,2-d]pyrimidin-2-amine trifluoroacetic acid salt] |
| 83 | Nc1nc(N2CC(N)C2)c2oc3c(c2n1)CCCC3 [Example 23, 4-(3-Aminoazetidin-1-yl)-6,7,8,9-tetrahydro[1]benzo-furo[3,s-d]pyrimidin-2-amine trifluoroacetic acid salt] |
| 2 | Nc1nc(N2CC[C@@H](N)C2)c2oc3c(c2n1)CCCC3 [Example 24, 4-[(3R)-3-Aminopyrrolidin-1-yl-6,7,8,9-tetra-hydro[1]benzofuro[3,2-d]pyrimidin-2-aminetrifluoroacetic acid salt] |
| 507 | NCCNc1nc(N)nc2c3c(oc12)CCCC3 [Example 25, N4-(2-Aminoethyl)-6,7,8,9-tetrahydro[1]benzofuro[3,2-d]pyrimidine-2,4-diamine trifluoroacetic acid salt] |

| Compound | Ki [nM] |
| --- | --- |
| 4-[(1S,4S)-2,5-Diazabi- cyclo]2.2.1-2-yl]hept-2-yl]- 6,7,8,9-tetrahydro[1]benzo- thieno[3,2-d]pyrimidin-2- amine [Example 35] | 417 |
| CNC1CCN(c2nc(N)nc3c(Br)csc23)C1 (stereo in doubt) [Example 14, 7-Bromo-4-(3R)-3-(methyl-amino)pyrrolidin-1-yl-d]pyrimidin-2-amine tri-fluoroacetic acid salt] | 1050 |
| CN1CCN(c2nc(N)nc3ccsc23)CC1 [Example 1, 4-(4-Methyl-piperazin-1-yl)-thieno[3,2-d]pyrimidin-2-ylamine] | 503 |
| Nc1nc(N2C[C@H]3CCN[C@H]3C2)c2sc3c(c2n1)CCCC3 [Example 4, 4-[(3aR,6aR)-Hexahydropyrrolo[3,4-b]pyrrol-5(1H)-yl]-6,7,8,9-tetrahydro[1]benzothieno[3,2-d]pyrimidin-2-amine] | 21 |
| Nc1nc(N2C[C@H]3CCN[C@H]3C2)c2oc3c(c2n1)CCCC3 [Example 7, 4-[(3aR,6aR)-Hexahydropyrrolo[3,4-b]pyrrol-5(1H)-yl]-6,7,8,9-tetrahydro[1]benzofuro[3,2-d]pyrimidin-2-amine] | 3 |
| c1nc(N2CCNCC2)c2oc3c(c2n1)CCCC3 [Example 9, 4-piperazin-1-yl-6,7,8,9-tetrahydro-benzo[4,5]furo[3,2-d]pyrimidine] | 110 |
| c1nc(N2CCNCC2)c2sc3c(c2n1)CCCC3 [Example 11, 4-piperazin-1-yl-6,7,8,9-tetrahydro-benzo[4,5]thieno[3,2-d]pyrimidine] | 454 |
| Cc1csc2c(N3CCN(C)CC3)nc(N)nc12 [Example 13, 7-Methyl-4-(4-methyl-piperazin-1-yl)thieno-amine trifluoroacetic acid salt] | 574 |
| CC(C)(C)c1cc2nc(N)nc(N3CC4CCCNC4C3)c2s1 (stereo not shown) [Example 19, 6-tert-Butyl-4-(octahydro-6H-pyrrolo[3,4-b]pyridin-6-yl)thieno[3,2-d]pyrimidin-2-amine trifluoroacetic acid salt] | 244 |
| Nc1nc(N2C[C@H]3CCCN[C@H]3C2)c2oc3c(c2n1)CCCC3 [Example 20, 4-[(4aR,7aR)-Octahydro-6H-pyrrolo[3,4-b]pyridin-6-yl]-6,7,8,9-tetra-hydro[1]benzofuro[3,2-d]pyrimidin-2-amine trifluoroacetic acid salt] | 5 |
